Laboratory results from patent US6626844B1, “Method and composition for inhibition of nitric oxide production in the oral cavity” (Aerocrine AB, priority 1998, dated 2003).

Key:
exhaled NO output = assay: Mouthwash trials: NO output in exhaled air; type: in vivo, humans; settings: for effect on NO output: 30 s mouthwash with 25 ml
Protocol: Experimental protocol: Exhaled NO was measured at an exhalation flow rate of 100 ml/s and the NO output was calculated. Measurements were repeated 3 times at each time point and the median value was used. After baseline measurements, the test subjects (n=3) were asked to rinse their mouth with 25 ml of different solutions during 30 s whereafter the solution was spat out All solutions were made up in distilled water. Exhaled NO measurements were repeated directly after, and 5, 15 and 30 min after the mouthwash procedure. Results are given as mean relative changes in NO output compared to baseline measurements.

[1] = tested on: NO synthesis in the oral cavity; settings: prior treatment with mouthwash, healthy volunteers; cited from earlier work
NO in exhaled air [2] = assay: Mouthwashes and NO in exhaled air; type: in vivo, humans
From the text: (§1) Ten healthy non-smoking subjects, age 23-43, were included in the study. The NO measurements were made with a chemiluminescense technique according to the recommendations recently described in the ERS Task Force Report (Kharitonov et al., 1997). The values of NO concentration were then registered in a computer software program together with the values of flow and pressure, measured with a pneunotachygraf, and calculations of these parameters were presented on a screen.
The following describes briefly the “single-breath” method for orally exhaled air. Compressed NO free air was continuously flowing into a non-diffusing gas collection bag, 100 l capacity (Hans Rudolph Inc.), at a rate of 2-3 l/min. The bag was connected via a tube to a Y-piece with a one-way valve, which in turn was adapted to a mouthpiece. Before the measurements the subjects inhaled NO free air through the mouthpiece and were asked to hold their breath for 10 s while they put their tongue into the mouthpiece's opening, in order to prevent NO from diffusing out. Then the subjects exhaled through the mouthpiece at a flow rate of about 0.15 l/s against a resistance of 50 cmH2O/l/s (Hans Rudolph Inc.), giving rise to an oral pressure of 8-10 cmH2O, for a period of 20 s. The exhaled air went out through the other one-way valve in the Y-piece leading on to a linear pneumotachymeter (Hans Rudolph Inc.), where the values of flow and pressure were registered and transformed into digital signals recorded by a computer software program (Medical Breath Analyser™ from Aerocrine AB, Sweden). The recordings were instantly visualized on a computer screen, which enabled the subjects to maintain a certain flow (i.e. 0.15 l/s), adjusting the exhalation to the flow curve. A fraction of the exhaled air was aspirated into the NO analyzer (Eco Physics Inc., Model CLD 700 AL) at a flow rate of approximately 0.5 l/min, through a 110-cm narrow-bore and Teflon®-coated tube connected to the mouthpiece. The detected NO levels were passed on to the computer and integrated with the figures for flow and pressure for calculation of NO release rate (pmol/s) and NO amount (pmol). NO release was calculated by the formula: NO-conc×Q=pmol/s×l/s=pmol/s. The conversion of NO-conc in ppb to a molecular unit goes via the fact that the volume of 1 mol of NO takes up 24.445 liters at normal temperature and pressure. Given this 1 ppb NO equals 40.908 pM. At the flow of 0.15 l/s and e.g. a NO-conc of 10 ppb the NO release equals 67 pmol/s. The use of NO-release, instead of NO-concentration as a registration unit, has the advantage of taking the flow rate into account, whereas in the use of NO-concentration the exhalation flow is not taken into consideration. In addition to the curves for flow and pressure two curves for NO concentration and NO release were plotted on the screen and calculated mean values were presented for the last 40% of the breath, representing the plateau phase. NO amount was also presented for the first 40%, representing the area under curve for the peak.
In order to further manipulate with the conditions in the oral cavity and perhaps influence the formation of NO from salivary nitrite different mouthwashes were introduced in the study. On a separate day, from that of the nitrate load, the ten subjects volunteered to have their NO in exhaled air measured after rinsing their mouth with distilled water, sodium bicarbonate-, ascorbic acid- and, nitrite solutions in named order. Further, a mouthwash with Chlorhexidine acetate 0.2% was included in the study.
In the first series of mouthwashes 5 baseline measurements with a breathhold were performed to obtain a reference value. In fact, all measurements in this part of the experiment were done with a breathhold, for the reasons described above. […]

NO in exhaled air [3] = assay: Mouthwash after nitrate loading, NO in exhaled air; type: in vivo, humans
Protocol: The experiment was terminated with a mouthwash of sodium bicarbonate after 180 min with a following single-breath measurements. This to examine whether the mouthwash's possible reduction of the NO formation would be enhanced at a stage when one would expect high levels of NO. For mouthwash procedure see below.
In addition to the mouthwash with sodium bicarbonate after […], the effects of chlorhexidine was studied at a stage when one could expect larger amounts of nitrite in the saliva. This was also done in a separate experiment, on a separate day, not to interfere with the results of the original nitrate loading study. Five single-breaths with a breathhold were carried out to obtain a reliable baseline. Thereafter a load of 400 mg potassium nitrate was ingested, as described above. However, to facilitate this experiment for the subjects there was no demand for fasting. Five additional single-breaths were performed 90 min later—to get representative mean values of NO after nitrate ingestion. The subjects then rinsed their mouths with 2.5 cl chlorhexidine acetate 0.2% for 30 s and performed a NO measurement immediately afterwards. The single-breath procedure was also repeated 2, 5, 10, 20 and 30 min after the mouthwash.

NO formation from saliva = tested on: NO formation from saliva
Protocol: On another occasion the subjects were asked to produce 10 ml of saliva, without time restriction, by again chewing on a piece of Teflon®-plastic. Half of this, i.e. 5 ml, was put in a 50 ml plastic syringe with an addition of 0.5 ml distilled water and closed with a three-way stopcock after filling it up with 50 ml of room air. The remaining 5 ml were mixed with 0.5 ml 20 mM nitrite solution (resulting in a salivary nitrite concentration of a […]) and put in another syringe filled with 50 ml of room air. The two syringes were put in a warming cupboard with an approximate temperature of 40° C. for 15 min. The air head space from both syringes was then collected in two separate empty 50 ml syringes and it's NO concentration was determined by the NO chemiluminescence analyser.

nasal NO = assay: Nasal NO after nitrate loading; type: in vivo, humans; settings: 5-180 min after nitrate loading
From the text: To look into nasal NO levels a somewhat new approach taking advantage of the set-up for measurements in exhaled air was used. A “nose-olive”, tried out individually for a tight fitting to the subject's nostrils, was attached to the Teflon®-coated tube leading in to the NO-analyzer. The olive was then placed in one of the nostrils letting the NO analyzer aspirate air from the nasal cavity. Even though the subjects kept breathing through their mouth the NO concentrations oscillated with every breath, pointing to a leakage of NO from the nose to the oral cavity. The subjects were asked to take a deep breath and exhale through the mouthpiece against the same resistance as above, while the olive still was sampling from the nose. The oscillations of the NO values then ceased and the concentrations increased to a stable plateau, visualized on the computer screen. The time for exhalation was set to 20 s. which was well sufficient to reach a plateau. A mean value of the NO concentration during the last 40% of the exhalation, i.e. 8 s. was presented by the computer program and included in the protocol. […]
An amount of 400 mg potassium nitrate was dissolved in a cup of distilled water and then swallowed down. […] NO in exhaled air was measured first without and then with a breathhold, as mentioned above.

NO in exhaled air [4] = assay: Nitrate loading: NO in orally exhaled air, single-breath chemiluminescence; type: in vivo, humans
From the text: as §1
The following describes briefly the “single-breath” method for orally exhaled air. Compressed NO free air was continuously flowing into a non-diffusing gas collection bag, 100 l capacity (Hans Rudolph Inc.), at a rate of 2-3 l/min. The bag was connected via a tube to a Y-piece with a one-way valve, which in turn was adapted to a mouthpiece. Before the measurements the subjects inhaled NO free air through the mouthpiece and were asked to hold their breath for 10 s while they put their tongue into the mouthpiece's opening, in order to prevent NO from diffusing out. Then the subjects exhaled through the mouthpiece at a flow rate of about 0.15 l/s against a resistance of 50 cmH2O/l/s (Hans Rudolph Inc.), giving rise to an oral pressure of 8-10 cmH2O, for a period of 20 s. The exhaled air went out through the other one-way valve in the Y-piece leading on to a linear pneumotachymeter (Hans Rudolph Inc.), where the values of flow and pressure were registered and transformed into digital signals recorded by a computer software program (Medical Breath Analyser™ from Aerocrine AB, Sweden). The recordings were instantly visualized on a computer screen, which enabled the subjects to maintain a certain flow (i.e. 0.15 l/s), adjusting the exhalation to the flow curve. A fraction of the exhaled air was aspirated into the NO analyzer (Eco Physics Inc., Model CLD 700 AL) at a flow rate of approximately 0.5 l/min, through a 110-cm narrow-bore and Teflon®-coated tube connected to the mouthpiece. The detected NO levels were passed on to the computer and integrated with the figures for flow and pressure for calculation of NO release rate (pmol/s) and NO amount (pmol). NO release was calculated by the formula: NO-conc×Q=pmol/s×l/s=pmol/s. The conversion of NO-conc in ppb to a molecular unit goes via the fact that the volume of 1 mol of NO takes up 24.445 liters at normal temperature and pressure. Given this 1 ppb NO equals 40.908 pM. At the flow of 0.15 l/s and e.g. a NO-conc of 10 ppb the NO release equals 67 pmol/s. The use of NO-release, instead of NO-concentration as a registration unit, has the advantage of taking the flow rate into account, whereas in the use of NO-concentration the exhalation flow is not taken into consideration. In addition to the curves for flow and pressure two curves for NO concentration and NO release were plotted on the screen and calculated mean values were presented for the last 40% of the breath, representing the plateau phase. NO amount was also presented for the first 40%, representing the area under curve for the peak. […]
Changes in NO levels were analysed by using non-parametric ANOVA for paired and repeated measures with subsequent Dunn's post-test as offered by InStat from GraphPad Software. Nitrate and nitrite concentrations in the saliva were analysed by the non-parametric method of […] for paired measurements, using the same software. […]

[5] = immediately after 30 s mouthwash (3 cl), with breathhold, baseline 41.1±3.3, n=10
[6] = immediately after 30 s mouthwash, baseline 497.6±52.7
[7] = 0 min after 30 s mouthwash with 25 ml, n=3
[8] = 120 min after nitrate ingestion, after breathhold

OO [1% H2O2, hydrogen peroxide]
effect on NO output (exhaled NO output): increased NO output

O=S(=O)([O-])[O-].[Fe+2] [100 mg FeSO4]
effect on NO output (exhaled NO output): increased NO output

O=C1O[C@H]([C@@H](O)CO)C(O)=C1O [ascorbic acid]
effect on NO production [1]: marked elevation in NO production | plateau NO release (NO in exhaled air [2]; [5]): 155.0 ± 27.6 pmol/s | peak level of NO (NO in exhaled air [2]; [6]): 2482.5±601.9 ppb | increase of peak concentration (NO in exhaled air [2]; immediately after mouthwash): around 400% | increase of plateau level compared to baseline (NO in exhaled air [2]; immediately after mouthwash): ~300%

CC(=O)O.CC(=O)O.NC(=N\CCCCCC/N=C(N)/N=C(\N)Nc1ccc(Cl)cc1)/N=C(\N)Nc1ccc(Cl)cc1 [chlorhexidine acetate]
NO release (NO in exhaled air [3]; immediately after 0.2% mouthwash (2.5 cl, 30 s) given 90 min after nitrate load, before mouthwash 60.8±6.4): 33.9 ± 4.3 pmol/s | immediate reduction of NO levels (NO in exhaled air [3]; mouthwash 90 min after nitrate load): ~50% | mean relative change in NO output compared to baseline (exhaled NO output; [7]): −14% at | mean relative change in NO output compared to baseline (exhaled NO output; 5 min after mouthwash): −11% at | mean relative change in NO output compared to baseline (exhaled NO output; 15 min after mouthwash): −5% at | mean relative change in NO output compared to baseline (exhaled NO output; 30 min after mouthwash): −10% at | immediate decrease of NO compared to baseline (NO in exhaled air [2]; 0.2% mouthwash, control (fasting) situation): ~30% | NO release (NO in exhaled air [2]; immediately after 30 s mouthwash with 2.5 cl 0.2%, pH 8.0, separate day, baseline 33.9±2.9): 24.1 ± 3.5 pmol/s

O=N[O-].[K+] [nitrite solution, potassium nitrite]
increase of plateau NO release compared to baseline (NO in exhaled air [2]; 0.1 M nitrite solution): > 40 fold | peak level of NO (NO in exhaled air [2]; 60 s after 30 s mouthwash): 2812.1±622.1 ppb | plateau NO release (NO in exhaled air [2]; 60 s after 30 s mouthwash): 225.2 ± 44.0 pmol/s | plateau NO release (NO in exhaled air [2]; dose-response rinse, 1 mM nitrite solution, one single-breath after rinsing): 55.0 ± 8.7 pmol/s | plateau NO release (NO in exhaled air [2]; dose-response rinse, 0.1 M nitrite solution): 1791.8 ± 404.8 pmol/s | NO concentration in head space of incubated saliva (NO formation from saliva; 5 ml saliva + 0.5 ml 20 mM nitrite, about 40° C., 15 min, pure saliva 59.5±29.8): 396.4±138.2 ppb | increase of NO formation versus pure saliva (NO formation from saliva; nitrite added to saliva): more than 500%

O=[N+]([O-])[O-].[K+] [potassium nitrate]
NO release (NO in exhaled air [3]; 90 min after 400 mg potassium nitrate, not fasting, control 34.8±4.2): 60.8 ± 6.4 pmol/s | increase of NO release compared to control levels (NO in exhaled air [3]; 90 min after nitrate load): ~2 fold | changes in nasal NO production (nasal NO): no significant changes in NO production | NO release during the plateau (NO in exhaled air [4]; 120 min after ingestion of 400 mg potassium nitrate, without breathhold, baseline 31.2±3.0, mean±SEM n=10): 77.0 ± 15.2 pmol/s | increase of peak NO amount compared to baseline (NO in exhaled air [4]; [8]): 130% | peak level: total amount NO released during the first 40% of the exhalation (NO in exhaled air [4]; [8]): 819 ± 160.8 pmol | NO release during the plateau (NO in exhaled air [4]; 120 min after nitrate ingestion, with breathhold, baseline 31.9±4.5): 70.8 ± 11.6 pmol/s | increase of plateau NO release compared to baseline (NO in exhaled air [4]; 120 min after nitrate ingestion, without breathhold): ~150%

O=C([O-])O.[Na+] [sodium bicarbonate]
reduction of plateau (NO in exhaled air [3]; mouthwash 180 min after nitrate load): more than 30% | plateau NO release (NO in exhaled air [3]; mouthwash 180 min after nitrate load, before mouthwash 52.7±4.8): 36.2 ± 4.2 pmol/s | mean relative change in NO output compared to baseline (exhaled NO output; [7]): −7% at | mean relative change in NO output compared to baseline (exhaled NO output; 5 min after mouthwash): −5% at | mean relative change in NO output compared to baseline (exhaled NO output; 15 min after mouthwash): −8% at | mean relative change in NO output compared to baseline (exhaled NO output; 30 min after mouthwash): −8% at | plateau NO release (NO in exhaled air [2]; 120 s after 30 s mouthwash): 34.4 ± 3.6 pmol/s | plateau NO release (NO in exhaled air [2]; [5]): 31.3 ± 3.1 pmol/s | peak level of NO (NO in exhaled air [2]; [6]): 309.2±43.0 ppb

polyoxyethylene sorbitan monolaurate [1% Tween-20 ®]
mean relative change in NO output compared to baseline (exhaled NO output; [7]): −9% at | mean relative change in NO output compared to baseline (exhaled NO output; 5 min after mouthwash): −6% at
